From US8754234B2, “Chiral 2-(benzylsulfinyl)thiazole derivatives and 2-[(1H-pyrazol-4-ylmethyl)sulfinyl]thiazole derivatives, processes for their preparation and their use as herbicides and plant growth regulators” (Bayer Cropscience AG, priority 2007, dated 2014)

Experiments:
Assay type in all cases: in vivo
[1] = tested on: Setaria viridis (green foxtail); assay: Pre-emergence herbicidal effect, green foxtail; settings: after about 3 weeks
From the text: (§1) Seeds of monocotyledonous or dicotyledonous weed plants or crop plants are placed in sandy loam in wood-fiber pots and covered with soil. The compounds according to the invention, formulated in the form of wettable powders (WP), are then applied as aqueous suspension at a water application rate of 600 l/ha (converted) with the addition of 0.2% of wetting agent to the surface of the covering soil. After the treatment, the pots are placed in a greenhouse and kept under good growth conditions for the test plants. After about 3 weeks, the effect of the preparations is scored visually in comparison with untreated controls (herbicidal effect in percent (%): 100% activity=the plants have died, 0% activity=like control plants).

[2] = tested on: Brassica napus (winter rape); assay: Pre-emergence crop plant compatibility, winter rape; settings: after about 3 weeks
From the text: as §1

[3] = tested on: Lolium multiflorum (Italian ryegrass); assay: Pre-emergence herbicidal effect, Italian ryegrass; settings: after about 3 weeks
From the text: as §1

[4] = tested on: Alopecurus myosuroides (black-grass); assay: Pre-emergence herbicidal effect, black-grass; settings: after about 3 weeks
From the text: as §1

[5] = tested on: Avena fatua, Echinochloa crus galli, Lolium multiflorum, Setaria viridis and Alopecurus myosuroides; assay: Post-emergence herbicidal effect, harmful plants; settings: post-emergence method, application rate of 0.32 kg and less of active substance per hectare
Experimental: (§2) Seeds of monocotyledonous and dicotyledonous weed and crop plants are placed in sandy loam in wood fibre pots, covered with soil and cultivated in a greenhouse under good growth conditions. 2 to 3 weeks after sowing, the test plants are treated at the one-leaf stage. The compounds according to the invention, formulated in the form of wettable powders (WP), are then applied as aqueous suspension at a water application rate of 600 l/ha (converted) with the addition of 0.2% of wetting agent to the green parts of the plants. After the test plants have been kept in the greenhouse under optimum growth conditions for about 3 weeks, the activity of the preparations is rated visually in comparison to untreated controls (herbicidal activity in percent (%): 100% activity=the plants have died, 0% activity=like control plants).

[6] = tested on: Viola tricolor (wild pansy); assay: Pre-emergence herbicidal effect, wild pansy; settings: after about 3 weeks
From the text: as §1

[7] = tested on: Avena fatua, Stellaria media, Echinochloa crus galli, Lolium multiflorum, Setaria viridis, Abutilon theophrasti, Amaranthus retroflexus, Viola tricolor …; assay: Pre-emergence herbicidal effect, harmful plants; settings: pre-emergence method, application rate of 0.32 kg and less of active substance per hectare
From the text: as §1

[8] = tested on: Echinochloa crus-galli (barnyard grass); assay: Pre-emergence herbicidal effect, barnyard grass; settings: after about 3 weeks
From the text: as §1

[9] = tested on: Triticum aestivum (summer wheat); assay: Pre-emergence crop plant compatibility, summer wheat; settings: scored visually after about 3 weeks
From the text: as §1

Zea mays (corn) = assay: Post-emergence crop plant compatibility, corn; settings: after about 3 weeks
Experimental: as §2

Polygunum convolvulus = assay: Post-emergence herbicidal effect, Polygunum convolvulus; settings: after about 3 weeks
Experimental: as §2

[10] = tested on: Lolium multiflorum (Italian ryegrass); assay: Post-emergence herbicidal effect, Italian ryegrass; settings: after about 3 weeks
Experimental: as §2

[11] = tested on: Setaria viridis (green foxtail); assay: Post-emergence herbicidal effect, green foxtail; settings: after about 3 weeks
Experimental: as §2

Avena fatua = assay: Post-emergence herbicidal effect, Avena fatua; settings: after about 3 weeks
Experimental: as §2

Stellaria media = assay: Post-emergence herbicidal effect, Stellaria media; settings: after about 3 weeks
Experimental: as §2

[12] = 20 g of active compound/ha, formula (Ib) table
[13] = 80 g of active compound/ha, formula (Ib) table
[14] = 20 g of active compound/ha, formula (Ia) table
[15] = 80 g of active compound/ha, formula (Ia) table

Cn1nc(C(F)(F)F)c(C[S+]([O-])c2ncc(Br)s2)c1OC(F)F (racemic) [Racemate of 2637 (S config.) and 3725 (R config.), 5-bromo-2-({[5-(difluoromethoxy)-1-methyl-3-(trifluoromethyl)-1H-pyrazol-4-yl]methyl}sulfinyl)-1,3-thiazole]
herbicidal effect in percent, SETVI [1, 12]: 0%
herbicidal effect in percent, SETVI [1, 13]: 80%
herbicidal effect in percent, BRSNW ([2]; 20 g of active compound/ha): 0%
herbicidal effect in percent, BRSNW ([2]; 80 g of active compound/ha): 0%
herbicidal effect in percent, LOLMU [3, 12]: 0%
herbicidal effect in percent, LOLMU [3, 13]: 80%
herbicidal effect in percent, ALOMY ([4]; 20 g of active compound/ha): 30%
herbicidal effect in percent, ALOMY ([4]; 80 g of active compound/ha): 90%

[O-][S@@+](Cc1c(Cl)cccc1Cl)c1ncc(Cl)s1 [Compound 185]
herbicidal effect in percent, SETVI [1, 14]: 70%
herbicidal effect in percent, SETVI [1, 15]: 100%
herbicidal activity against harmful plants [5]: very good herbicidal activity
herbicidal effect in percent, VIOTR ([6]; 20 g of active compound/ha): 60%
herbicidal effect in percent, VIOTR ([6]; 80 g of active compound/ha): 70%
herbicidal activity against harmful plants [7]: very good herbicidal activity
herbicidal effect in percent, ECHCG ([8]; 20 g of active compound/ha): 90%
herbicidal effect in percent, ECHCG ([8]; 80 g of active compound/ha): 100%
herbicidal effect in percent, TRZAS ([9]; 20 g of active compound/ha): 0%
herbicidal effect in percent, TRZAS ([9]; 80 g of active compound/ha): 10%
herbicidal effect in percent, LOLMU [3, 14]: 70%
herbicidal effect in percent, LOLMU [3, 15]: 90%

[O-][S@@+](Cc1c(F)cccc1F)c1ncc(Br)s1 [Compound 259, 5-Bromo-2-[(S)-(2,6-difluorobenzyl)sulfinyl]-1,3-thiazole]
herbicidal activity against harmful plants [5]: very good herbicidal activity
herbicidal activity against harmful plants [7]: very good herbicidal activity

[O-][S@@+](Cc1c(Cl)cccc1Cl)c1ncc(Br)s1 [Compound 270]
herbicidal activity against harmful plants [5]: very good herbicidal activity
herbicidal activity against harmful plants [7]: very good herbicidal activity

[O-][S@+](Cc1c(Cl)cccc1Cl)c1ncc(Cl)s1 [Compound 1375]
herbicidal effect in percent, SETVI [1, 14]: 0%
herbicidal effect in percent, SETVI [1, 15]: 20%
herbicidal activity against harmful plants [5]: very good herbicidal activity
herbicidal effect in percent, VIOTR ([6]; 20 g of active compound/ha): 60%
herbicidal effect in percent, VIOTR ([6]; 80 g of active compound/ha): 80%
herbicidal activity against harmful plants [7]: very good herbicidal activity
herbicidal effect in percent, ECHCG ([8]; 20 g of active compound/ha): 0%
herbicidal effect in percent, ECHCG ([8]; 80 g of active compound/ha): 80%
herbicidal effect in percent, TRZAS ([9]; 20 g of active compound/ha): 0%
herbicidal effect in percent, TRZAS ([9]; 80 g of active compound/ha): 0%
herbicidal effect in percent, LOLMU [3, 14]: 0%
herbicidal effect in percent, LOLMU [3, 15]: 60%

[O-][S@+](Cc1c(F)cccc1F)c1ncc(Br)s1 [Compound 1449, 5-bromo-2-[(R)-(2,6-difluorobenzyl)sulfinyl]-1,3-thiazole]
herbicidal activity against harmful plants [5]: very good herbicidal activity
herbicidal activity against harmful plants [7]: very good herbicidal activity

[O-][S@+](Cc1c(Cl)cccc1Cl)c1ncc(Br)s1 [Compound 1460]
herbicidal activity against harmful plants [7]: very good herbicidal activity

Cn1nc(C(F)(F)F)c(C[S@+]([O-])c2ncc(Cl)s2)c1OC(F)F [Compound 2555]
herbicidal activity against harmful plants [5]: very good herbicidal activity
herbicidal activity against harmful plants [7]: very good herbicidal activity

Cn1nc(C(F)(F)F)c(C[S@+]([O-])c2ncc(Br)s2)c1Cl [Compound 2632, 5-Bromo-2-[(S)-{[5-chloro-1-methyl-3-(trifluoromethyl)-1H-pyrazol-4-yl]methyl}sulfinyl]-1,3-thiazole]
herbicidal activity against harmful plants [5]: very good herbicidal activity
herbicidal activity against harmful plants [7]: very good herbicidal activity

Cn1nc(C(F)(F)F)c(C[S@+]([O-])c2ncc(Br)s2)c1OC(F)F [Compound 2637, 5-Bromo-2-[(S)-{[5-(difluoromethoxy)-1-methyl-3-(trifluoromethyl)-1H-pyrazol-4-yl]methyl}sulfinyl]-1,3-thiazole]
herbicidal effect in percent, SETVI [1, 12]: 80%
herbicidal effect in percent, SETVI [1, 13]: 90%
herbicidal effect in percent, BRSNW ([2]; 20 g of active compound/ha): 0%
herbicidal effect in percent, BRSNW ([2]; 80 g of active compound/ha): 0%
herbicidal activity against harmful plants [5]: very good herbicidal activity
herbicidal activity against harmful plants [7]: very good herbicidal activity
herbicidal effect in percent, LOLMU [3, 12]: 10%
herbicidal effect in percent, LOLMU [3, 13]: 100%
herbicidal effect in percent, ALOMY ([4]; 20 g of active compound/ha): 60%
herbicidal effect in percent, ALOMY ([4]; 80 g of active compound/ha): 90%

Cn1nc(C(F)(F)F)c(C[S@+]([O-])c2ncc(Br)s2)c1OCC(F)(F)F [Compound 2640]
herbicidal activity in percent, ZEAMX (Zea mays (corn); 20 g of active compound/ha): 0%
herbicidal activity in percent, ZEAMX (Zea mays (corn); 80 g of active compound/ha): 0%
herbicidal activity against harmful plants [5]: very good herbicidal activity
herbicidal activity in percent, POLCO (Polygunum convolvulus; 20 g of active compound/ha): 20%
herbicidal activity in percent, POLCO (Polygunum convolvulus; 80 g of active compound/ha): 100%
herbicidal activity in percent, LOLMU ([10]; 20 g of active compound/ha): 60%
herbicidal activity in percent, LOLMU ([10]; 80 g of active compound/ha): 100%
herbicidal activity against harmful plants [7]: very good herbicidal activity
herbicidal activity in percent, SETVI ([11]; 20 g of active compound/ha): 100%
herbicidal activity in percent, SETVI ([11]; 80 g of active compound/ha): 100%
herbicidal activity in percent, AVEFA (Avena fatua; 20 g of active compound/ha): 20%
herbicidal activity in percent, AVEFA (Avena fatua; 80 g of active compound/ha): 90%
herbicidal activity in percent, STEME (Stellaria media; 20 g of active compound/ha): 10%
herbicidal activity in percent, STEME (Stellaria media; 80 g of active compound/ha): 90%

Cn1nc(C(F)(F)F)c(C[S@+]([O-])c2ncc(I)s2)c1OC(F)F [Compound 2719]
herbicidal activity against harmful plants [5]: very good herbicidal activity
herbicidal activity against harmful plants [7]: very good herbicidal activity

Cn1nc(C(F)(F)F)c(C[S@@+]([O-])c2ncc(Cl)s2)c1OC(F)F [Compound 3643]
herbicidal activity against harmful plants [5]: very good herbicidal activity
herbicidal activity against harmful plants [7]: very good herbicidal activity

Cn1nc(C(F)(F)F)c(C[S@@+]([O-])c2ncc(Br)s2)c1Cl [Compound 3720, 5-bromo-2-[(R)-{[5-chloro-1-methyl-3-(trifluoromethyl)-1H-pyrazol-4-yl]methyl}sulfinyl]-1,3-thiazole]
herbicidal activity against harmful plants [5]: very good herbicidal activity
herbicidal activity against harmful plants [7]: very good herbicidal activity

Cn1nc(C(F)(F)F)c(C[S@@+]([O-])c2ncc(Br)s2)c1OC(F)F [Compound 3725, 5-bromo-2-[(R)-{[5-(difluoromethoxy)-1-methyl-3-(trifluoromethyl)-1H-pyrazol-4-yl]methyl}sulfinyl]-1,3-thiazole]
herbicidal effect in percent, SETVI [1, 12]: 0%
herbicidal effect in percent, SETVI [1, 13]: 0%
herbicidal effect in percent, BRSNW ([2]; 20 g of active compound/ha): 0%
herbicidal effect in percent, BRSNW ([2]; 80 g of active compound/ha): 0%
herbicidal activity against harmful plants [5]: very good herbicidal activity
herbicidal activity against harmful plants [7]: very good herbicidal activity
herbicidal effect in percent, LOLMU [3, 12]: 0%
herbicidal effect in percent, LOLMU [3, 13]: 0%
herbicidal effect in percent, ALOMY ([4]; 20 g of active compound/ha): 0%
herbicidal effect in percent, ALOMY ([4]; 80 g of active compound/ha): 20%

Cn1nc(C(F)(F)F)c(C[S@@+]([O-])c2ncc(Br)s2)c1OCC(F)(F)F [Compound 3728]
herbicidal activity in percent, ZEAMX (Zea mays (corn); 20 g of active compound/ha): 0%
herbicidal activity in percent, ZEAMX (Zea mays (corn); 80 g of active compound/ha): 0%
herbicidal activity against harmful plants [5]: very good herbicidal activity
herbicidal activity in percent, POLCO (Polygunum convolvulus; 80 g of active compound/ha): 10%
herbicidal activity in percent, LOLMU ([10]; 20 g of active compound/ha): 0%
herbicidal activity in percent, LOLMU ([10]; 80 g of active compound/ha): 0%
herbicidal activity against harmful plants [7]: very good herbicidal activity
herbicidal activity in percent, SETVI ([11]; 20 g of active compound/ha): 10%
herbicidal activity in percent, SETVI ([11]; 80 g of active compound/ha): 10%
herbicidal activity in percent, AVEFA (Avena fatua; 20 g of active compound/ha): 0%
herbicidal activity in percent, AVEFA (Avena fatua; 80 g of active compound/ha): 10%
herbicidal activity in percent, STEME (Stellaria media; 20 g of active compound/ha): 0%
herbicidal activity in percent, STEME (Stellaria media; 80 g of active compound/ha): 10%
